Reference: PubChem BioAssay AID330 (DTP/NCI, 2004)
Where “and” joins values, the source holds several entries; their conditions need not be identical. Equal values may be shown once. Toxic doses and inconclusive results are not listed. Rule for the calls: active = survival T/C of 150% or more; inactive = T/C below 125% in these data.

Test system: P388 leukemia ip, CD2F1 mice, survival T/C
Experiment: NCI In Vivo Anticancer Drug Screen. Data for tumor model P388 Leukemia (intraperitoneal) in CD2F1 (CDF1) mice
Conditions: endpoint: median survival time, higher = longer survival
Summary of the method: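 Mice carrying the transplanted tumor received test compound or vehicle. Survival was recorded in each group, and the value is the treated-group measurement divided by that of the vehicle-treated control group.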

[1] = dose: 50.0 mg/kg/injection, schedule: Q01DX009 (ip), vehicle: saline with Tween-80
[2] = dose: 100.0 mg/kg/injection, schedule: Q01DX009 (ip), vehicle: saline with Tween-80
[3] = dose: 200.0 mg/kg/injection, schedule: Q01DX009 (ip), vehicle: saline with Tween-80
[4] = dose: 50.0 mg/kg/injection, schedule: Q01DX005 (ip), vehicle: Klucel (hydroxypropylcellulose) (HPC)
[5] = dose: 100.0 mg/kg/injection, schedule: Q01DX005 (ip), vehicle: Klucel (hydroxypropylcellulose) (HPC)
[6] = dose: 200.0 mg/kg/injection, schedule: Q01DX005 (ip), vehicle: Klucel (hydroxypropylcellulose) (HPC)
[7] = dose: 25.0 mg/kg/injection, schedule: Q01DX009 (ip), vehicle: saline with Tween-80
[8] = dose: 50.0 mg/kg/injection, schedule: Q01DX001 (ip), vehicle: Klucel (hydroxypropylcellulose) (HPC)
[9] = dose: 100.0 mg/kg/injection, schedule: Q01DX001 (ip), vehicle: Klucel (hydroxypropylcellulose) (HPC)
[10] = dose: 100.0 mg/kg/injection, schedule: Q01DX001 (ip), vehicle: saline with Tween-80
[11] = dose: 200.0 mg/kg/injection, schedule: Q01DX001 (ip), vehicle: saline with Tween-80
[12] = dose: 400.0 mg/kg/injection, schedule: Q01DX001 (ip), vehicle: saline with Tween-80
[13] = dose: 12.5 mg/kg/injection, schedule: Q01DX009 (ip), vehicle: saline

Measured: T/C

CCC(O)CC1OC2(CCC1C)CC1OC(=O)/C=C\C(C)(O)C(O)C(C)C(O)C(OC3CC(OC)C(O)C(C)O3)C(O)C(C)(O)CCC/C=C/C3CC(C)COC3(O)CC(O2)C1C (stereo not drawn)
inactive: dose: 1.0 mg/kg/injection, schedule: Q01DX005 (ip), vehicle: saline + alcohol 100 % of control | dose: 2.0 mg/kg/injection, schedule: Q01DX005 (ip), vehicle: saline + alcohol 104 % of control

ClCCCCN(CCN(CCCCCl)c1ccccc1)c1ccccc1
inactive: dose: 12.5 mg/kg/injection, schedule: Q04DX002 (ip), vehicle: saline 100 % of control | dose: 25.0 mg/kg/injection, schedule: Q04DX002 (ip), vehicle: saline 101 % of control

COC1CC(C23C4CC2C3C2CC/C=C\CCC24)CC1OC (stereo not drawn)
inactive: [1] 98 % of control | [2] 100 % of control | [3] 102 % of control

O=C1CNC(=O)N1CCO
inactive: dose: 12.5 mg/kg/injection, schedule: Q04DX003 (ip), vehicle: saline 99 % of control | dose: 25.0 mg/kg/injection, schedule: Q04DX003 (ip), vehicle: saline 106 % of control | dose: 50.0 mg/kg/injection, schedule: Q04DX003 (ip), vehicle: saline 98 % of control | dose: 100.0 mg/kg/injection, schedule: Q04DX003 (ip), vehicle: saline 99 % of control | dose: 200.0 mg/kg/injection, schedule: Q04DX003 (ip), vehicle: saline 104 % of control | dose: 400.0 mg/kg/injection, schedule: Q04DX003 (ip), vehicle: saline 104 % of control

CC(C)(C)OC(=O)NC(CCCNC(=O)OCc1ccccc1)C(=O)O (stereo not drawn)
inactive: [4] 100 % of control | [5] 100 % of control | [6] 99 % of control

COc1ccc(OC)c2c1nc(CBr)n2C
inactive: dose: 16.25 mg/kg/injection, schedule: Q01DX005 (ip), vehicle: DMSO 104 % of control | dose: 32.5 mg/kg/injection, schedule: Q01DX005 (ip), vehicle: DMSO 93 % of control

COP(=S)(NC(C)C)Oc1ccc(C)cc1[N+](=O)[O-] (stereo not drawn)
inactive: [1] 98 % of control | [2] 100 % of control | [3] 90 % of control

Cc1c[n+]([O-])cc(=O)[nH]1
inactive: [2] 100 % of control | [3] 100 % of control | dose: 400.0 mg/kg/injection, schedule: Q01DX009 (ip), vehicle: saline with Tween-80 100 % of control

COc1cc2c(cc1OC)C(Cc1ccccc1)=NCC2
inactive: [7] 100 % of control | [1] 95 % of control | [2] 90 % of control

Clc1cncc(N2CCNCC2)n1
inactive: dose: 12.5 mg/kg/injection, schedule: Q01DX009 (ip), vehicle: Klucel (hydroxypropylcellulose) (HPC) 100 % of control | dose: 25.0 mg/kg/injection, schedule: Q01DX009 (ip), vehicle: Klucel (hydroxypropylcellulose) (HPC) 99 % of control | dose: 50.0 mg/kg/injection, schedule: Q01DX009 (ip), vehicle: Klucel (hydroxypropylcellulose) (HPC) 108 % of control and 91 % of control

Cc1cc(Cl)ccc1-n1nc(C)c2c(N)nc(N)nc21
inactive: dose: 100.0 mg/kg/injection, schedule: Q04DX003 (ip), vehicle: Klucel (hydroxypropylcellulose) (HPC) 109 % of control | dose: 200.0 mg/kg/injection, schedule: Q04DX003 (ip), vehicle: Klucel (hydroxypropylcellulose) (HPC) 102 % of control

O=C(c1ccc(Cl)cc1)n1c(Cl)c(/C=N\Nc2cccc([N+](=O)[O-])c2)c2ccccc21
inactive: [8] 86 % of control | [9] 86 % of control | dose: 200.0 mg/kg/injection, schedule: Q01DX001 (ip), vehicle: Klucel (hydroxypropylcellulose) (HPC) 87 % of control

COc1ccc(C2N(c3ccccc3)CCN2c2ccccc2)cc1
inactive: dose: 50.0 mg/kg/injection, schedule: Q01DX005 (ip), vehicle: saline with Tween-80 99 % of control | dose: 100.0 mg/kg/injection, schedule: Q01DX005 (ip), vehicle: saline with Tween-80 93 % of control | dose: 200.0 mg/kg/injection, schedule: Q01DX005 (ip), vehicle: saline with Tween-80 93 % of control

CC(=O)N(C(C)=O)/C(=C/c1cn(C(C)=O)c2ccccc12)C(=O)c1ccc(C)cc1
inactive: [10] 105 % of control | [11] 104 % of control | [12] 98 % of control

O=S1(=O)c2ccccc2N(c2ccccc2)c2nccn21
inactive: [10] 101 % of control | [11] 98 % of control | [12] 92 % of control

C=CCC(C)/C(=N\[N+](C)(C)C)c1ccccc1 (stereo not drawn)
inactive: dose: 12.5 mg/kg/injection, schedule: Q01DX001 (ip), vehicle: saline 100 % of control | dose: 25.0 mg/kg/injection, schedule: Q01DX001 (ip), vehicle: saline 106 % of control | dose: 50.0 mg/kg/injection, schedule: Q01DX001 (ip), vehicle: saline 99 % of control

NC(=O)NN1CC(=O)N(c2ccccc2)CC1=O
inactive: [1] 97 % of control | [2] 100 % of control | [3] 95 % of control

CCN(CC)CCOc1cccc(C)c1C
inactive: [7] 100 % of control | [1] 95 % of control | [2] 104 % of control

Oc1ccc2ccccc2c1-c1c(OC(c2ccccc2)c2ccccc2)ccc2ccccc12
inactive: dose: 100.0 mg/kg/injection, schedule: Q04DX003 (ip), vehicle: saline with Tween-80 102 % of control | dose: 200.0 mg/kg/injection, schedule: Q04DX003 (ip), vehicle: saline with Tween-80 94 % of control | dose: 400.0 mg/kg/injection, schedule: Q04DX003 (ip), vehicle: saline with Tween-80 102 % of control

COCCCNP(=S)(N1CC1)N1CC1
inactive: dose: 3.0 mg/kg/injection, schedule: Q04DX003 (ip), vehicle: saline 110 % of control | dose: 6.0 mg/kg/injection, schedule: Q04DX003 (ip), vehicle: saline 115 % of control
active: [13] 170 % of control | dose: 25.0 mg/kg/injection, schedule: Q04DX003 (ip), vehicle: saline with Tween-80 186 % of control

CCOCC1COc2c(cc3[nH]cc(C(=O)O)c(=O)c3c2Cl)O1 (stereo not drawn)
inactive: [1] 95 % of control | [2] 93 % of control | [3] 95 % of control

CCCN(CCC)C(=O)C(c1ccccc1)C1(O)CCCCC1 (stereo not drawn)
inactive: [4] 100 % of control | [5] 100 % of control | [6] 97 % of control

NC1=C(O)C(=O)C(c2ccccc2O)O1 (stereo not drawn)
inactive: dose: 30.0 mg/kg/injection, schedule: Q01DX005 (ip), vehicle: suspension in saline 104 % of control | dose: 60.0 mg/kg/injection, schedule: Q01DX005 (ip), vehicle: suspension in saline 103 % of control | dose: 120.0 mg/kg/injection, schedule: Q01DX005 (ip), vehicle: suspension in saline 89 % of control and 97 % of control | dose: 240.0 mg/kg/injection, schedule: Q01DX005 (ip), vehicle: suspension in saline 88 % of control

Cc1ccc(C)c(OP2(=O)NC3CCCCC3N2)c1 (stereo not drawn)
inactive: dose: 100.0 mg/kg/injection, schedule: Q04DX002 (ip), vehicle: Klucel (hydroxypropylcellulose) (HPC) 91 % of control | dose: 200.0 mg/kg/injection, schedule: Q04DX002 (ip), vehicle: Klucel (hydroxypropylcellulose) (HPC) 89 % of control

Cc1nsc(N)n1
inactive: dose: 6.25 mg/kg/injection, schedule: Q01DX009 (ip), vehicle: saline 100 % of control | dose: 6.25 mg/kg/injection, schedule: Q01DX009 (ip), vehicle: suspension in saline 94 % of control | [13] 100 % of control and 98 % of control | dose: 12.5 mg/kg/injection, schedule: Q01DX009 (ip), vehicle: suspension in saline 101 % of control | dose: 25.0 mg/kg/injection, schedule: Q01DX009 (ip), vehicle: saline 100 % of control and 98 % of control | dose: 25.0 mg/kg/injection, schedule: Q01DX009 (ip), vehicle: suspension in saline 102 % of control | dose: 50.0 mg/kg/injection, schedule: Q01DX009 (ip), vehicle: saline 99 % of control and 98 % of control | dose: 50.0 mg/kg/injection, schedule: Q01DX009 (ip), vehicle: suspension in saline 103 % of control

C[n+]1c(-c2cccc(OCCOCCOCCOc3cccc(-c4c5cc(N)ccc5c5ccc(N)cc5[n+]4C)c3)c2)c2cc(N)ccc2c2ccc(N)cc21
inactive: dose: 0.39 mg/kg/injection, schedule: Q01DX009 (ip), vehicle: water 111 % of control | dose: 0.78 mg/kg/injection, schedule: Q01DX009 (ip), vehicle: water 104 % of control

CC(=O)NC(=S)Nc1ccccc1
inactive: dose: 25.0 mg/kg/injection, schedule: Q01DX001 (ip), vehicle: Klucel (hydroxypropylcellulose) (HPC) 100 % of control | [8] 101 % of control | [9] 103 % of control

c1ccc2c(c1)CC1ON3CCc4ccccc4C3C21 (stereo not drawn)
inactive: [1] 97 % of control | [2] 94 % of control | [3] 92 % of control
